According to patent US20100310563A1, “METHODS FOR TREATING INDUCED CELLULAR PROLIFERATIVE DISORDERS” (priority 2007, published 2010):

Tested on: phosphorylated JAK2 in GFP positive peripheral blood granulocytes of the JAK2V617F mouse
Assay: FACS analysis of intracellular JAK2 phosphorylation in peripheral blood granulocytes
Format: cell-based
Settings: with IL-3 and G-CSF stimulation for 60 minutes, GFP-positive granulocytes of a JAK2V617F mouse, FIG. 4B bottom
Protocol: White cells from bone marrow and spleen were resuspended in staining buffer (BD Biosciences). Aliquots of 1×10^6 cells were stained for 20 minutes with conjugated monoclonal antibodies. Cells were washed in staining buffer and analyzed by FACS. For FACS analysis of intracellular JAK2 phosphorylation, peripheral blood of one JAK2V617F mouse and three normal BALB/c mice were collected. WBC from normal BALB/c mice were pooled together. Cells were split into three aliquots and resuspended in RPMI 1640 (Life Technologies) containing 0.5% BSA and incubated for 15 hours. Following incubation, one aliquot was stimulated with 10 ng/mL IL-3 plus 10 ng/mL granulocyte colonystimulating factor (G-CSF; StemCell) and second aliquot was stimulated with 10 ng/mL IL3, 10 ng/mL G-CSF, and 10 Amol/L AG-490 (Calbiochem) for 60 minutes and third aliquot was left unstimulated. Cells ([…]) were resuspended in 50 AL staining buffer (1% BSA and 0.1% sodium azide in PBS) and permeabilized using Fix&Perm cell permeabilization kit (Caltag Laboratories, Burlingame, Calif. and An der Grub, Vienna, Austria). The granulocyte population was selected by forward and side scatter
To test if the mutant JAK2V617F kinase in murine leukocytes is constitutively active, peripheral blood granulocytes was analyzed by FACS for phosphorylated JAK2. […]

## N#C/C(=C/c1ccc(O)c(O)c1)C(=O)NCc1ccccc1 [AG490]
  phosphorylated JAK2 levels: reduced phosphorylated JAK2 levels below baseline
